Measured values from patent US20060148896A1, “Use of an alkanoyl L-carnitine for the preparation of a medication to treat anhedonia” (Sigma-Tau Industrie Farmaceutiche Riunite S.p.A., priority 2001, published 2006).

What was measured:
Format in all cases: in vivo, rat
[1] = test system: rats exposed to chronic stress; test: Escape test in rats exposed to unavoidable/chronic stress; conditions: for N0 of escapes After 8 days / N0 of escapes After stress + 3-week VAB training: ALCAR 10 mg/kg IP; for N0 of escapes After 8 days: BID or IMI 5 mg/kg BID plus chronic stress for 8 days; for N0 of escapes After stress + 3-week VAB training: BID or IMI 5 mg/kg BID, 8 days plus 3 weeks with stress on alternate days; for escape deficit induced by chronic stress: second experiment, end of 3-week training
Experimental: c) Stress: 10 rats were treated with physiological solution (1 ml/kg IP, BID) for 14 days. Then, the animals were exposed to the sequence of pre-test [with the pre-test, the animals were exposed to both unavoidable stress (electric shocks) of minimum intensity and duration, capable to induce a reliable modification of behaviour. Brain. Res. Protocols 7(1):11-20; 2001]; escape test [(also defined as “test”) carried out 24 hours after the pre-test, to assess the induced behaviour modification (Brain. Res. Protocols 7(1):11-20; 2001)]; Y- maze training and exposure to the chronic stress procedure on alternate days (maze one day, and stress the next day) for three weeks (Brain. Res. Protocols 7(1): 11-20; 2001), while continuing treatment with physiological solution;
d) acetyl L-carnitine+Stress: 10 rats were treated with acetyl L-carnitine (10 mg/kg, IP, BID) for 14 days. Then, animals were exposed to the sequence of: -pre-test; -test; -Y-maze training and simultaneously exposed to the chronic stress procedure on alternate days (maze one day, and stress the next day) for three weeks, while continuing treatment with acetyl L-camitine.
At the end of the VAB training, all the animals exposed to stress underwent the escape test (Brain. Res. Protocols 7(1):11-20; 2001).
(§1) f) Stress+VAB: the animals were exposed to the pre-test. Twenty-four hours later they were subjected to the escape test, and then exposed to the chronic stress procedure for 7 days. On day 9, they started their training in the Y-maze while exposed to stress on alternate days;
(§2) g) acetyl L-carnitine+Stress+VAB: the animals were exposed to the pre-test. Twenty-four hours later they underwent the escape test. Then, they were exposed to the protocol of chronic stress for 7 days, while receiving acetyl L-carnitine 10 mg/kg IP, BID for 8 days. On day 9, the rats started their VAB training in the Y-maze and exposure to stress on alternate days, while continuing treatment with the acetyl L-carnitine for 3 weeks;
(§3) h) IMI+Stress+VAB: the animals were exposed to the pre-test. Twenty-four hours later, they underwent the escape test, and then they were exposed to the chronic stress protocol for 7 days while receiving imipramine 5 mg/kg IP, BID for 8 days. On day 9, the rats started their training in the Y-maze and exposure to stress on alternate days, while continuing with IMI for 3 weeks.
At the end of the training period, all the animals underwent the escape test.

[2] = test system: dopamine in the nucleus accumbens (Nacs); test: Microdialysis of dopamine in the Nacs after 7-day stress: basal, vanilla sugar meals, cocaine (Example 2); conditions: for Dopamine (max percentage increase) Meal 1 / Dopamine (max percentage increase) Meal 2: mean ± standard error of 10; for protection from the neurochemical effects resulting from a repeated exposure to stress: Example 2, IMI 5 mg/kg IP BID or FLX 5 mg/kg IP/die for 8 days with 7-day stress
Experimental: Sixty rats were divided in 6 groups of 10 animals each, as follows:
a) Control (Crt): the animals were administered physiological solution 1 ml/kg IP, BID for 8 days;
b) acetyl L-carnitine: the animals were administered acetyl L-carnitine 10 mg/kg IP, BID for 8 days;
c) Stress: the animals were exposed to the pre-test, they were tested for escape 24 hours later, and then they were exposed to the chronic stress protocol for 7 days, while receiving physiological solution (for 8 days);
d) acetyl L-carnitine+Stress: the animals were exposed to the pre-test, they were tested for escape 24 hours later, and then they were exposed to the chronic stress protocol for 7 days, while receiving acetyl L-carnitine 10 mg/kg IP, BID, for 8 days;
e) IMI+Stress: the animals were exposed to the pre-test, they were tested for escape 24 hours later, and then they were exposed to the chronic stress protocol for 7 days, while receiving IMI 5 mg/kg IP, BID for 8 days;
f) FLX+Stress: the animals were exposed to the pre-test, they were tested for escape 24 hours later, and then they were exposed to the chronic stress protocol for 7 days, while receiving FLX 5 mg/kg IP/die for 8 days.
On day 9, all the animals were implanted with dialysis probes in the Nacs; on day 10, the animals were dialysed.
The basal levels of dopamine were determined over 60 minutes.
At this point, the rats were offered 5 vanilla sugar pellets (Meal 1); 4 samples of dialysis fluid were taken over the next 60 minutes.
The rats were offered vanilla sugar one more time (Meal 2), and samples of dialysis fluid were taken over 60 minutes.
Finally, the rats were injected with cocaine 5 mg/kg IP, 0.1 ml in water and samples of dialysis fluid were taken over 60 minutes.

[3] = test system: rats exposed to chronic stress; test: Acquisition of vanilla sugar-sustained appetitive behaviour (VAB) in the Y-maze during chronic stress; conditions: for No. of correct choices: rats, ALCAR 10 mg/kg IP, BID or IMI 5 mg/kg BID started after pre-test, chronic stress 8 days, then 3-week Y-maze training with stress on alternate days, mean ± standard error; for protection from negative effect of chronic stress on VAB acquisition: second experiment: chronic administration during exposure to stress and training in the Y-maze
Source text: The anhedonia model is based on the observation that the fact of being exposed to a repeated unavoidable stress prevents the development of an appetitive behaviour induced and maintained by a highly palatable food (vanilla sugar) in rats fed ad libitum (Behav. Pharmacol. 8:619-628, 1997). […]
The Y-maze was made up of three wings. The vanilla sugar for the acquisition of the appetitive behaviour was in one of the two diverging wings (VAB training, 3 weeks).
e) VAB: the physiological solution was administered to the animals (1 ml/kg IP, BID) for 8 days, and then the rats were trained in the Y-maze for VAB acquisition while continuing the treatment with physiological solution for 3 weeks;
as §1, §2, §3

[4] = test system: dopamine in the nucleus accumbens (Nacs); test: Microdialysis of extraneuronal dopamine in the nucleus accumbens after VAB training (Example 1); conditions: rats trained in the Y-maze during chronic stress exposure and treated; for dopamine in the Nacs after the acute administration of cocaine vs control animals (FIGS. 3 and 4): cocaine 5 mg/kg IP
Experimental: Two days later, animals were implanted with microdialysis probes into the nucleus accumbens (Nacs) (Brain. Res. Protocols 5(1):16-24: 2000) and underwent dialysis on the next day.
Once the dopamine basal level had been reached, the rats were administered a single dose of cocaine 5 mg/kg IP in 0.1 ml volume of water, and dialysed within the next 60 minutes.

[5] = rats exposed to chronic stress for 7 days during ALCAR 10 mg/kg IP BID, IMI 5 mg/kg IP BID or FLX 5 mg/kg IP/die, 8 days, Nacs

CC(=O)O[C@H](CC(=O)[O-])C[N+](C)(C)C [ALCAR, acetyl L-carnitine]
N0 of escapes After 8 days ([1]; rats, mean ± standard error): 1.0 ± 0.5
N0 of escapes After stress + 3-week VAB training ([1]; rats, mean ± standard error): 22.4 ± 2.8
No. of escapes 24 hours after the pre-test ([1]; rats, acetyl L-carnitine 10 mg/kg IP, BID for 14 days before pre-test, mean ± standard error): 25.8 ± 2.5
No. of escapes After training for VAB and exposure to stress ([1]; rats, acetyl L-carnitine 10 mg/kg IP, BID, 14-day pre-treatment continued during 3-week VAB training and chronic stress, mean ± standard error): 26.4 ± 2.9
escape deficit induced by chronic stress [1]: completely reversed
basal levels of dopamine in the Nacs vs control rats (FIGS. 5 and 6) ([2]; Example 2, 8-day treatment): significantly higher
increase of dopamine in the Nacs after the acute administration of cocaine vs control rats ([2]; Example 2, 8-day treatment, cocaine 5 mg/kg IP): significantly higher
Dopamine (max percentage increase) Meal 1 [2, 5]: 286.4 ± 16.4 %
Dopamine (max percentage increase) Meal 2 [2, 5]: 276.7 ± 18.6 %
increase in the output of dopamine after two consecutive vanilla sugar meals ([2]; rats exposed to stress and treated with acetyl L-carnitine, Nacs): approx 300%
Dopamine (max percentage increase) Meal 1 ([2]; rats not exposed to stress, acetyl L-carnitine 10 mg/kg IP, BID 8 days, Nacs dialysate after first vanilla sugar meal): 35.7 ± 1.8 %
Dopamine (max percentage increase) Meal 2 ([2]; rats not exposed to stress, acetyl L-carnitine 10 mg/kg IP, BID 8 days, Nacs dialysate after second vanilla sugar meal): 6.8 ± 5.1%
negative effect of chronic stress on VAB acquisition (FIGS. 1 and 2) ([3]; first experiment: 14-day pre-treatment 10 mg/kg IP BID, continued throughout training with chronic stress): prevented such negative effect from occurring
No. of correct choices [3]: 7.6 ± 0.5
protection from negative effect of chronic stress on VAB acquisition [3]: fully protected the rats from negative effect of chronic stress on VAB acquisition
basal levels of extraneuronal dopamine in the Nacs vs control animals (FIGS. 3 and 4) [4]: significantly higher
dopamine output levels in the Nacs vs control group [4]: superimposable to those observed in the control group
dopamine in the Nacs after the acute administration of cocaine vs control animals (FIGS. 3 and 4) [4]: significantly higher

CNCCC(Oc1ccc(C(F)(F)F)cc1)c1ccccc1 (stereo not shown) [FLX, fluoxetine, reference compound]
protection from the neurochemical effects resulting from a repeated exposure to stress [2]: Neither the treatment with IMI nor the treatment with FLX were capable to protect
Dopamine (max percentage increase) Meal 1 [2, 5]: 4.6 ± 4.2%
Dopamine (max percentage increase) Meal 2 [2, 5]: 3.6 ± 4.0%

CN(C)CCCN1c2ccccc2CCc2ccccc21 [IMI, imipramine, reference compound]
N0 of escapes After 8 days ([1]; rats, mean ± standard error): 2.5 ± 1.1
N0 of escapes After stress + 3-week VAB training ([1]; rats, mean ± standard error): 24.8 ± 1.0
escape deficit induced by chronic stress [1]: completely reversed
protection from the neurochemical effects resulting from a repeated exposure to stress [2]: Neither the treatment with IMI nor the treatment with FLX were capable to protect
Dopamine (max percentage increase) Meal 1 [2, 5]: 3.3 ± 2.3%
Dopamine (max percentage increase) Meal 2 [2, 5]: 4.1 ± 3.5%
No. of correct choices [3]: 2.9 ± 1.2
protection from negative effect of chronic stress on VAB acquisition [3]: protected the rats from the negative effect of chronic stress on VAB acquisition
basal levels of extraneuronal dopamine in the Nacs vs control animals (FIGS. 3 and 4) [4]: significantly lower
dopamine in the Nacs after the acute administration of cocaine vs control animals (FIGS. 3 and 4) [4]: significantly lower
